{"source": "patent EP0084516B1", "about": "“Anthelmintics” (CIBA-GEIGY AG, priority 1982, dated 1983)", "key": {"[1]": {"test_system": "Fasciola hepatica", "assay": "Tests on sheep artificially infected with Fasciola hepatica metacercariae (faecal egg counts and adult fluke counts at autopsy)", "format": "in vivo, Schafe", "conditions": "for Adulte Egel bei Autopsie Mittelwert: group mean", "description": "Versuche an mit Fasciola hepatica infizierten Schafen\n36 Schafe wurden artifiziell mit Metacercarien von Fasciola hepatica infiziert. Zu diesem Zweck wurden die Metacercarien in einer wäßrigen 0,4%igen Suspension von Carboxymethylcellulose direkt in den Rumen der Versuchstiere injiziert. Die Tiere wurden dann für die Medikierung in etwa gleichgroße Gruppen und in drei Kontrollgruppen eingeteilt. Nach 4 Wochen wurden die Wirkstoffe in Dosen von 5 bis 10 mg/kg Körpergewicht je nach vorgesehener Kombination an die Versuchstiere verabreicht.\nWährend des Versuchs wurden die Schafe in Gehegeboxen unter Normalbedingungen gehalten.\nZur Prüfung der Wirkung der einzelnen Wirkstoffkombinationen wurden mit einer Standardtechnik 12 bis 15 Wochen nach Infizierung bzw. 8 bis 11 Wochen nach Medikierung die von den Leberegeln abgelegten Eier im Kot gezählt. Anschließend wurden die Versuchstiere getötet, soweit sie nicht zur Gruppe B und Kontrollgrupe B' gehörten (Tiere Nr. 26-36), und es wurde die Zahl der vorhandenen Leberegel festgestellt."}, "[2]": {"test_system": "Fasciola hepatica", "assay": "Tests on sheep artificially infected with Fasciola hepatica metacercariae (faecal egg counts and adult fluke counts at autopsy)", "format": "in vivo, Schafe", "conditions": "B 4,6 mg/kg, individual sheep"}, "[3]": {"test_system": "6wöchige und jüngere Leberegel", "conditions": "comparable dose; from Austral. Vet. J. 55, 431-432, 1979; Brit. Vet. J. 138,371-382, 1982; cited from earlier work"}}, "note": "“And” between values parts separate entries of the source, which are not always exact repeats. Equal entries are not always repeated."}
{"compound": "CSc1nc2cc(Cl)c(Oc3cccc(Cl)c3Cl)cc2[nH]1", "note": "[Substanz A, 5-Chlor-6-(2',3'-dichlorphenoxy)-2-methylthiobenzimidazol]", "values": [{"measurement": "Adulte Egel bei Autopsie Anzahl", "setting": "[1]; A 5,0 mg/kg, given 4 weeks after infection, individual sheep", "value": "12 and 23 and 2 and 14 and 0"}, {"measurement": "EPG* 14. Woche", "setting": "[1]; A 5,0 mg/kg, given 4 weeks after infection, liver fluke eggs per g faeces, week 14 after infection, individual sheep", "value": "65 pro gr Faeces and 60 pro gr Faeces and 0 pro gr Faeces (2×) and 10 pro gr Faeces"}, {"measurement": "EPG* 15. Woche", "setting": "[1]; A 5,0 mg/kg, given 4 weeks after infection, week 15 after infection, individual sheep", "value": "125 pro gr Faeces and 60 pro gr Faeces and 5 pro gr Faeces and 0 pro gr Faeces (2×)"}, {"measurement": "Adulte Egel bei Autopsie Mittelwert", "setting": "[1]; A 5,0 mg/kg, sheep 1-5", "value": "10,2"}, {"measurement": "Adulte Egel bei Autopsie % Reduktion", "setting": "[1]; A 5,0 mg/kg, versus untreated control A'", "value": "89,4%"}]}
{"compound": "CCCSc1ccc2nc(NC(=O)OC)[nH]c2c1", "note": "[Substanz B, [5-(Propylthio)-1 H-benzimidazol-2-yl]-carbaminsäuremethylester]", "values": [{"measurement": "EPG* 12. Woche", "setting": "[2]; given 4 weeks after infection, week 12 after infection", "value": "360 pro gr Faeces and 370 pro gr Faeces and 290 pro gr Faeces and 880 pro gr Faeces"}, {"measurement": "EPG* 13. Woche", "setting": "[2]; week 13 after infection", "value": "1110 pro gr Faeces and 560 pro gr Faeces and 370 pro gr Faeces and 1280 pro gr Faeces"}, {"measurement": "Wirkung gegen 6wöchige und jüngere Leberegel", "setting": "[3]", "value": "unwirksam"}]}
{"compound": "COC(=O)Nc1nc2ccc(Sc3ccccc3)cc2[nH]1", "note": "[Substanz C, [5-(Phenylthio)-1 H-benzimidazol-2-yl]-carbaminsäuremethylester, reference compound]", "values": [{"measurement": "Adulte Egel bei Autopsie Anzahl", "setting": "[1]; C 5,0 mg/kg, given 4 weeks after infection, Tabelle 2, individual sheep", "value": "54 and 77 and 82"}, {"measurement": "Adulte Egel bei Autopsie Mittelwert", "setting": "[1]; C 5,0 mg/kg, Tabelle 2, sheep 20-22", "value": 71}, {"measurement": "Adulte Egel bei Autopsie % Reduktion", "setting": "[1]; C 5,0 mg/kg, Tabelle 2, versus untreated control C'", "value": 0, "unit": "%"}]}
